In brackets after ≈: the same amount, converted by molar mass. Read-outs that look alike come from different tables or passages of the source.
How the values were obtained:
[1] = pH range of 4–9; ref EFSA 2003; cited from earlier work
[2] = cited from earlier work
Pf NF54 = conditions: ref Beteck et al., cited from earlier work
[3] = system: multidrug resistant Pf K1; design: method as in Beteck et al., 2018; conditions: ref Beteck et al., 2018; read-out: IC50 against multidrug resistant Pf K1; cited from earlier work
[4] = design: method as in Wang et al., 2014; conditions: dosed as a micro-suspension in mice; ref Wang et al., 2014; cited from earlier work
Plasma stability = type: in vitro ADME; conditions: human plasma
Description: Stock solutions of compounds in DMSO were used to spike pooled human plasma. Samples were transferred in duplicate to 6 different wells of a 96-deep well plate. An aliquot of each sample was immediately quenched with ice cold acetonitrile containing the internal standard carbamazepine (0.1 μM), after which the plate was incubated in a water bath (37°C for 1 h). Aliquots of samples were removed at 5, 15, 40, 60, and 180 min and quenched with ice cold acetonitrile. After samples of the final time point were precipitated, the supernatant was transferred to a round bottom 96-well plate for analysis by LC-MS/MS using a reverse phase Gemini NX-C18 column (5 μM, 2.1 mm × 50 mm) with a Shimadzu HPLC coupled with an AB Sciex 3200 Q TRAP MS). The peak area ratios were used to calculate the amount of parent compound remaining and t1/2 in plasma, using the following equations.
% Parent remaining % Parent= Normalised peak area of sample at timepoint/Normalised peak area of sample at t=0 x 100
Predicted t1/2 t1/2= −0.693/λ Where λ is the slope of the Ln % parent remaining vs. time curve.

Toxoplasma gondii (Tg) = system: Toxoplasma gondii (Tg); design: method as in Beteck et al., 2018; conditions: in vitro; ref Beteck et al., 2018; read-out: IC50 against Toxoplasma gondii; cited from earlier work
[5] = system: P. berghei sporozoite liver stages; conditions: abstract; no reference given; cited from earlier work
[6] = system: multidrug resistant Pf W2; design: method as in Beteck et al., 2018; conditions: ref Beteck et al., 2018; read-out: Activity against multidrug resistant Pf W2; cited from earlier work
[7] = Metabolic stability in mouse liver microsomes; type: in vitro ADME
Description: (§1) A 5-point metabolic stability assay in human and mouse liver microsomes were performed in duplicate in 96-well plates. Stock solution of RMB005, −059 and 060 prepared in DMSO were individually incubated at 37°C in mouse and pooled human liver microsomes (0.4 mg/mL). An aliquot was removed at 0 min and quenched with ice cold acetonitrile containing the internal standard carbamazepine (0.1 μM). The cofactor NADPH was added, and the reactions were subsequently stopped at time points 5, 10, 30, and 60 min by removal of an aliquot and quenching with ice cold acetonitrile containing the internal standard. The supernatant of all samples were analysed via LC-MS/MS analysis (reverse phase Gemini NX-C18 column and Shimadzu HPLC and AB Sciex 3200 Q TRAP MS). Calculation of in vitro t1/2, intrinsic clearance rate (CLint) and predicted in vivo clearance (CLH) was carried out using the following equations ([Obach 1999]). CLintClint= 0.693/t1/2(min) ×Volume of incubation (μL)/microsomal protein (μg) Where t1/2 is calculated in minutes.
(§2) Predicted in vivo CLH CLH=Q × fu(plasma)×CLint/fu(mic)/Q+ fu(plasma)× CLint/fu(mic) Where Q is the hepatic blood flow of mouse (90 mL/min/kg) or human (20.7 mL/min/kg). Fu(plasma) is the unbound drug fraction in the plasma and fu(mic) is the unbound fraction in the microsomes.
(§3) The equation below was used in the case of RMB059 and -060, where protein-binding data were not available. CLH=Q × CLint/Q+ CLint

[8] = Passive permeability, parallel artificial membrane permeation assay (PAMPA); type: in vitro ADME; conditions: donor pH 6.5, acceptor pH 7.4, 4 h, read-out: Permeability (LogPapp) (converted)
Description: A parallel artificial membrane permeation assay (PAMPA) was used to assess the passive permeability of compounds with a 96-well MultiScreen filter plate ([…] pore size, Millipore). The filter plate was precoated with 5% hexadecane in hexane. Stock solutions of compounds were diluted to 1 mM in a donor buffer (pH 6.5). Lucifer yellow was added to the apical wells of the precoated MultiScreen plate containing compound donor solution. The donor buffer solutions were spiked with each test compound (1 mM). The acceptor-buffer solution was prepared by adding 10 μL DMSO to 990 μL acceptor buffer (pH 7.4) and 250 μL were added to the basolateral (acceptor) wells. The donor plate was carefully inserted into the acceptor plate and incubated at room temperature for 4 h. After the incubation period, 50 μL of samples from the acceptor plate were transferred to a round bottom 96-well plate, together with 30 μL of donor buffer for matrix matching. Theoretical equilibrium samples for each test compound were prepared by adding 150 μL of donor solutions to 250 μL acceptor solutions and left at room temperature. These theoretical equilibrium samples represent complete transfer of the compound into the donor well. For the theoretical equilibrium samples, 80 μL were added to the analysis plate. Lastly, 160 μL of the internal standard carbamazepine (0.1 μM) was added to all acceptor and equilibrium samples. A portion of the sample containing Lucifer yellow was analyzed on a BioRad iMark^TM Microplate Absorbance Reader (BioRad, Hercules, CA, United States; excitation 490 nm, emission 510–570 nm) to determine that P app was within the acceptable range (<50 nm/s). Samples were analysed using reverse phase Gemini NX-C18 column (5 μM, 2.1 mm × 50 mm) with a Shimadzu HPLC coupled with an AB Sciex 3200 Q TRAP MS). The Papp for each compound was determined using. C=VD × VA/(VD+VA) ×A×t where VA = volume of donor compartment (0.15 cm^3), VD = volume of acceptor compartment (0.25 cm^3), A = accessible filter area (0.24 cm^2) and t = incubation time (14,400 s). […]

Neospora caninum = system: Neospora caninum; design: method as in Beteck et al., 2018; conditions: in vitro; ref Beteck et al., 2018; read-out: IC50 against Neospora caninum; cited from earlier work
[9] = Lipophilicity, 1-octanol/phosphate buffer pH 7.4 (LogD7.4); type: physicochemical
Description: Stock solutions ([…]) of compounds were diluted to 100 μM in 96-well deep-well plate containing 1-octanol and phosphate buffer at pH 7.4. The plate was agitated on an orbital shaker at 750 rpm for 2 h. The organic and buffer layers of each well were transferred separately to a new analysis plate. The samples were analysed with the HPLC-diode array detection as described for kinetic solubility. Samples from both layers were analysed to determine LogD7.4 values.

[10] = Metabolic stability in human liver microsomes; type: in vitro ADME
Description: as §1, §2, §3

[11] = cited from earlier work; remark: listed apart in the source
[12] = design: method as in Tanner et al., 2019; conditions: ref Tanner et al., 2019; cited from earlier work
[13] = 2018, read-out: IC50 against Pf NF54
[14] = *protein binding data not included

Which results are given for `CCCCCCCCCCOc1cc2c(O)c(C(=O)OCC)cnc2cc1OCC` [DQ, decoquinate]?
Solubility in buffered aqueous solutions [1]: 0.024 µM (≈ 0.01 µg/mL); Solubility in buffered water [1]: 0.01 µg/mL (≈ 0.0239 µM); Octanol/water partition coefficient (Log Kow or LogP) ([2]; 25°C, pH 5, 7, or 9, ref Bampidis et al., 2019): ≥ 5.7; LogD ([2]; ref Burger et al., 2018): 7.8; IC50 (Pf NF54; Pf NF54, 2018, read-out: NF54 IC50 (line in the PK figures, in vitro IC50 in the discussion)): 26 nM; IC50 (Pf NF54; 2016, read-out: In vitro activity against chloroquine-sensitive NF54 asexual parasites): 26.6 nM; IC50 (Pf NF54; [13]): 26.6 nM; IC50 [3]: 64.9 nM; Relative BA [4]: 6%

Which results are given for `CCCCCCCCCCOc1cc2c(OC(=O)N3CCN(S(C)(=O)=O)C3=O)c(C(=O)OCC)cnc2cc1OCC` [RMB060]?
Plasma stability (in words) (Plasma stability): high degree of lability; half-life (Plasma stability; pooled plasma, 37°C): < 8 min; IC50 (Toxoplasma gondii (Tg)): 1.1 nM; Activities against P. berghei sporozoite liver stages (in words) [5]: sub-nanomolar; IC50 (Pf NF54; [13]): 1.4 nM; IC50 [6]: 1.1 nM; Estimated in vivo CLH MLM [7, 14]: 77.2* mL/min/kg; half-life ([7]; mouse liver microsomes, NADPH, read-out: Degradation half-life MLM): 14.5 min; CLint scaled ([7]; mouse, liver microsomes, calculated from t1/2 in MLM, read-out: In vitro CLint MLM): 541 mL/min/kg; Papp at 4 h, 1 mM [8]: 0.501 ×10⁻⁶ cm/s; IC50 (Neospora caninum): 0.6 nM; logD at 2 h [9]: 2.9; IC50 [3]: 1.3 nM; Estimated in vivo CLH HLM [10, 14]: 18.6* mL/min/kg; CLint scaled ([10]; human, pooled liver microsomes, calculated from t1/2 in HLM, read-out: In vitro CLint HLM): 183 mL/min/kg; half-life ([10]; pooled liver microsomes, human liver microsomes, NADPH, read-out: Degradation half-life HLM): 13.1 min

With `CCCCCCCCCCOc1cc2c(=O)c(C(=O)NCCOCCO)cn(CCO)c2cc1OCC` [RMB073] as the compound, how does the Plasma half-life [11] read?
Its Plasma half-life is “greater than 6 h”.

What about the “Predicted kinetic solubility at pH 7.4” value [12] of the same compound?
Its value is over 150 µM.
